Laboratory results published in patent US20190313942A1, “INGESTIBLE SYSTEM TO MONITOR GASTROINTESTINAL HEALTH IN SITU” (Massachusetts Institute of Technology, priority 2018, published 2019).

B1: HrtR: heme-regulated TetR-family transcriptional repressor from Lactococcus lactis (protein)
chain: MPKSTYFSLSDEKRKRVYDACLLEFQTHSFHEAKIMHIVKALDIPRGSFYQYFEDLKDSYYYILSQETVEIHDLFFNLLKEYPLEVALNKYKYLLLENLVNSPQYNLYKYRFLDWTYELERDWKPKGEVTVPARELDNPISQVLKSVIHNLVYRMFSENWDEQKFIETYDKEIKLLTEGLLNYVTESKK
modifications: Heme-responsive transcriptional repressor
notes: heme-regulated TetR-family transcriptional repressor from Lactococcus lactis

Experiments:
[1] = system: gastrointestinal bleeding; test: Guaiac test on fecal pellets after indomethacin; type: in vivo, C57BL/6J mice; conditions: 10 mg/kg oral, following morning
Experimental: For indomethacin experiments, animals were inoculated with blood sensor bacteria and fecal pellets were collected 6 hours later for luminescence analysis and CFU enumeration. Indomethacin (Sigma) solution was prepared by dissolving the compound in absolute ethanol to a concentration of 20 mg/mL. Immediately prior to mouse gavage, the indomethacin stock solution was diluted to 1.25 mg/mL in PBS and 0.2 mL of dilute indomethacin solution was administered to each animal (10 mg/kg). Preparation of indomethacin solution using this method was essential to ensure reliable and reproducible induction of gastrointestinal bleeding. The following morning, gastrointestinal bleeding was confirmed by performing a guaiac test (Hemoccult, Beckman Coulter) on fecal pellets from each animal. […] Subsequently, mice were again administered blood sensor bacteria and fecal pellets were collected 6 hours later for luminescence analysis and CFU enumeration.

PL(HrtO) = test: HrtR-mediated repression of PL(HrtO)-luxCDABE luminescence; type: cell-based, E. coli MG1655; conditions: co-transformation of PL(HrtO)-luxCDABE with constitutively expressing HrtR construct
Experimental: For genetic circuit characterization, overnight cultures were diluted 1:100 in fresh LB and incubated with shaking at 37° C. for 2 hours. Cultures were removed from the incubator and 200 μL of culture was transferred to a 96-well plate containing various concentrations of inducer. The plate was returned to a shaking incubator at 37° C. Following 2 hours of incubation, luminescence was read using a BioTek Synergy H1 Hybrid Reader using a […] integration time and a sensitivity of 135. Luminescence values, measured in relative luminescence units (RLUs), were normalized by the optical density of the culture measured at 600 nm. For in vitro kinetic studies, subcultured cells were mixed with inducer in a 96-well plate and immediately placed in the plate reader set at 37° C. without shaking. Luminescence and absorbance was read at 5 minute intervals.

Molecule	guaiac test (gastrointestinal bleeding) [1]	reduction in luminescence (PL(HrtO)) [fold]
COc1ccc2c(c1)c(CC(=O)O)c(C)n2C(=O)c1ccc(Cl)cc1 [indomethacin]	guaiac positive	–
B1	–	4.4
